Assay results from publication PMC5787466, “Accelerated bottom-up drug design platform enables the discovery of novel stearoyl-CoA desaturase 1 inhibitors for cancer therapy” (Oncotarget, 2017).

Experiments:
4 ccRCC cell lines = assay: High-throughput proliferative screen, single point; conditions: in at least 2/4 ccRCC cell lines
Description: Using linear regression modeling generated from dose-response curves, proliferative inhibitory concentrations (IC50) of these 5 compounds were established (Figure 3b, Supplementary Figure 2b-2f).
(a) High-throughput proliferative screen
of known and novel SCD1 inhibitors in ccRCC cell lines. Dashed line represents a 40% decrease in proliferation as compared to DMSO
included as a known SCD1 inhibitor. Compounds labeled with an asterisk (*) are single-blinded known SCD1 inhibitors. (b-f) Dose-
the proliferative dose-response line graph.

Caki1 = assay: Proliferation dose-response IC50, Caki1; format: cell-based; conditions: Homo sapiens, CAKI-1; proliferative IC50, linear regression modeling of dose-response
Description: (§1) Error bars indicate standard deviation for n=2 replicates. […] To evaluate inhibition of SCD1 by these molecules, we used LC/MS to quantify changes in SCD1-catalyzed conversion of stearoyl-CoA to oleoyl-CoA in response to drug treatments in vitro using SCD1 protein extracted from murine liver (Figure 3c, Supplementary Figure 2g). […] Synthesis routes and spectral data including NMR and MS are also provided (Supplementary Figures 3-6).
(§2) Cells were seeded at 5,000 cells/well in clear-bottom 96-well plates in triplicate. Drug treatment was applied at 1:1000 in reduced serum conditions (3%). […] Alternatively, cells were plated 2x10^5/well in 12-well plates (Genesee Scientific) in triplicate prior to drug treatment. After 120-hour treatment, cell number was established using a Coulter Particle Counter (Beckman). Oleic acid-albumin (Sigma Aldrich) was added to media at 5µM, and was applied adjuvant to drug treatment. Drug stocks were prepared in DMSO (Sigma) at 1000x. IC50 dosing per cell line was calculated using CalcuSyn analytical software.

A498 ccRCC tumors = assay: Subcutaneous A498 xenograft tumor growth; format: in vivo, athymic nude mice; conditions: oral administration in chow, 60, 180 or 600 mg/kg, 4.5 weeks
Description: (§3) SCD1 expression correlates with poor cancer patient outcomes as evidenced by decreased survival in multiple cancers including gastric, lung, ovarian and renal cell carcinoma (Figure 5a-5b, Supplementary Figure 9a-9b). […] Our findings in thyroid carcinoma similarly present discordancy between tumor response to SCD1 inhibitors and SCD1 expression. SSI-4 was tested in vivo for anti-tumorigenic activity.
(§4) Figure 5 SSI-4 attenuates tumor progression Kaplan Meier survival analysis of indicated subtypes of (a) gastric and (b) lung cancer patients sorted into high versus low SCD1 mRNA expression, for multiple disease subtypes. Patient risk assessment at indicated mean follow-up is shown. […] (h) Tumor burden of ACHN pulmonary metastasis in response to SSI-4 treatment (180mg/kg) measured by ex vivo bioluminescent flux, given in photons/second (n=5 per group). ([…]) Tumor burden of ACHN pulmonary metastasis as determined by H&E staining of lungs from (h).
A498 cells were injected subcutaneously in the flank of athymic nude mice at 1x10^6/mouse. […] Tumor burden was measured using calipers. […] Once therapy was completed, lung tissue was harvested and analyzed for tumor burden via ex vivo bioluminescent imaging, and hematoxylin and eosin (H&E) staining of formalin-fixed, paraffin-embedded lung tissue. […]

[1] = Tolerability of chronic treatment in tumor-bearing animals; format: in vivo, athymic nude mice
Description: Chronic treatment at the highest dose in tumor-bearing animals appeared to be well tolerated, with ‹10% reduction in body mass even at the highest dose of 600mg/kg after 4.5 weeks of daily treatment (Supplementary Figure S9d).
A498 cells were injected subcutaneously in the flank of athymic nude mice at 1x10^6/mouse. Once tumor burden reached >50mm^3, SSI-4 treatment was administered at 60, 180, or 600 mg/kg in custom AIN76 animal chow (Research Diets, Inc.), given continuously for 4.5 weeks. Tumor burden was measured using calipers. For the lung tumor study, 2 million ACHN- pSIN Luc Ub Emerald GFP cells were injected intravenously in 50µL of PBS in athymic nude mice. 54 days after implantation, animals began SSI-4 treatment (180 mg/kg, chow, continuous) for 28 days. Once therapy was completed, lung tissue was harvested and analyzed for tumor burden via ex vivo bioluminescent imaging, and hematoxylin and eosin (H&E) staining of formalin-fixed, paraffin-embedded lung tissue. 20× images were obtained using Scanscope XT and Imagescope software.
Supplementary Figure 9: Patient survival correlated with SCD1 gene expression. […] (d) Change in body weight (BW) corrected for individual total weight, recorded during in vivo dose-response to SSI-4 in A498 xenograft model (Figure 3g). […]

A498 = assay: Proliferation dose-response IC50, A498; format: cell-based; conditions: Homo sapiens, proliferative IC50, linear regression modeling of dose-response
Description: as §1, §2

ACHN = assay: Proliferation dose-response IC50, ACHN; format: cell-based; conditions: Homo sapiens, proliferative IC50, linear regression modeling of dose-response
Description: as §1, §2

Caki2 = assay: Proliferation dose-response IC50, Caki2; format: cell-based; conditions: Homo sapiens, CAKI-2; proliferative IC50, linear regression modeling of dose-response
Description: as §1, §2

[2] = system: ACHN ccRCC pulmonary metastasis; assay: ACHN pulmonary metastasis model; format: in vivo, athymic nude mice; conditions: 180 mg/kg in chow, 28 days
Description: as §3, §4
ACHN cells were infected with pSIN Luc Ub Emerald GFP lentivirus construct, a kind gift from Dr. Yasuhiro Ikeda (Mayo Clinic). […] Lesion width was calculated as the mean of all nodules measured (7-12 per mouse), identified by H&E staining.
A498 cells were injected subcutaneously in the flank of athymic nude mice at 1x10^6/mouse. […] Tumor burden was measured using calipers. […]

- IC50 (ACHN): 0.003 µM
Structure (SMILES): CNC(=O)c1ccnc(NC(=O)N2CCC(Oc3ccccc3Cl)CC2)c1 [SSI-4]
- decrease in proliferation (4 ccRCC cell lines): > 40%
- IC50 (Caki1): 0.01 µM
- growth of A498 ccRCC tumors (A498 ccRCC tumors): growth inhibition
- primary adverse events ([1]; reversible upon discontinuation of therapy): Ocular changes including bilateral squinting
- reduction in body mass ([1]; tumor-bearing animals, 600mg/kg, 4.5 weeks of daily treatment): < 10%
- IC50 (A498): 0.009 µM
- IC50 (Caki2): 0.009 µM
- pulmonary metastasis formation of ACHN ccRCC [2]: reduced
